Test results taken from article PMC11378297, “Discovery and Profiling of New Multimodal Phenylglycinamide Derivatives as Potent Antiseizure and Antinociceptive Drug Candidates” (ACS Chemical Neuroscience, 2024).
Read-outs that look alike come from different tables or passages of the source. Marks after values point to notes of the source that are not given here.

How the values were obtained:
[1] = test system: maximal electroshock (MES) seizures, mice; settings: i.p., cited from earlier work
[2] = test system: 6 Hz (44 mA) seizures, mice; settings: i.p., cited from earlier work
[3] = test system: mice (motor coordination); settings: reference ASMs, rotarod test, i.p.; cited from earlier work
[4] = hepatotoxicity, HepG2 cell viability; assay type: cell-based, human; settings: human, HepG2 hepatoma cells; 1 μM, 72 h of incubation (Figure 11)
Protocol: The hepatotoxicity potential was assessed with the HepG2 cell line and the reference cytostatic drug doxorubicin.
The results are presented as means + SD. Statistical significance was evaluated by one-way ANOVA, followed by Bonferroni’s multiple comparison post hoc test (Graph Pad Prism 8.0.1 software, San Diego, CA, USA): *p < 0.05, ***p < 0.001, ****p < 0.0001 vs negative control (DMSO 1% in growth media).

[5] = test system: 6 Hz (32 mA) seizures, mice; settings: i.p., cited from earlier work
[6] = test system: mice (motor coordination); settings: racemates, chimney test, i.p.; cited from earlier work
[7] = test system: capsaicin-induced pain, mice; parameters: method as in PMID 28934547; settings: 200 mg/kg; cited from earlier work
[8] = test system: mature-BDNF (mBDNF) expression; assay: mBDNF expression in hippocampus and cortex of PTZ-kindled mice (Western blot); assay type: in vivo, mouse; settings: VPA repeated (150 mg/kg), p < 0.01 vs PTZ kindling control
Text: However, there are also few reports showing opposite findings.[51],[52] […] No changes in the expression of the nerve growth factor (NGF) were observed (Figure 6D–F).
Figure 6 Changes in mature-BDNF (mBDNF) expression in hippocampus (A) and cortex (C) and in proNGF expression in hippocampus (D) and cortex (F) with representative immunoblots, together with total protein amount visualized by the stain-free technique (B,E). Data are shown as means of relative expressions + SD (n = 8). Statistical significance was evaluated by one-way ANOVA followed by Tukey’s post hoc test: **p < 0.01 (GraphPad Prism 8.4.3).
The Western Blot method was used to assess the expression of proNGF and mBDNF in the mouse brain and hippocampal tissues. Using a bead homogenizer (Bead Ruptor Elite, Omni International, USA), the cortical and hippocampal regions of the mouse brain were weighted and homogenized at a ratio of 9 μL/mg in 2% SDS supplemented with a cocktail of protease (Thermo Scientific, Walthman, MA, USA) and phosphatase inhibitors (Sigma-Aldrich, St. Louis, MO, USA). Samples were then centrifuged at 10,000g for 10 min at 4 °C after being denatured for 10 min at 95 °C. […] One-way ANOVA with Tukey’s post hoc test was utilized to examine changes in the relative expression of the proteins that were evaluated.

[9] = test system: PTZ-induced kindling, mice; assay: PTZ-induced kindling model; assay type: in vivo, mouse; settings: 150 mg/kg i.p. repeatedly, positive control
Protocol: We investigated the impact of lead compound (R)-32 on PTZ-induced kindling in mice to further assess its antiseizure potential (Figure 3). […] The PTZ-induced kindling model is widely recognized as a useful method to induce chronic increase in susceptibility to epileptic seizures.
Figure 3 Effect of repeated treatment with (R)-32 in PTZ-induced kindling model in mice. […] Data are presented as means of seizure severity (n = 10–15 animals). Statistical significance was evaluated by a mixed effects model for repeated measures followed by Tukey’s post hoc test: **p < 0.01, […] vs control group (GraphPad Prism 8.4.3).
The procedure was performed as described in detail in our previous studies.[88],[89] […] Seizures were induced three times a week by i.p. administration of PTZ at a subconvulsive dose of 40 mg/kg. […] The seizure severity was scored using the modified Racine’s scale. […] The locomotor activity test, the elevated plus maze test, and the FST were performed 24 h after the last PTZ injection, according to the methods described in detail elsewhere. After completion of behavioral tests, animals were sacrificed. Hippocampi and cortices were dissected from the brains, frozen, and stored at −80 °C until assay. Following each PTZ injection, the mean seizure severity scores were determined for each experimental group. A mixed effects model for repeated measurements was used for analysis, along with Tukey’s post hoc test. The percentage of fully kindled mice was compared using Fisher’s exact probability test.

[10] = test system: glutamate and GABA concentrations in brain; assay: glutamate and GABA concentrations in hippocampus and cortex of PTZ-kindled mice; assay type: in vivo, mouse
Text: After behavioral tests (FST, PTZ-induced kindling), we determined the changes in glutamate and GABA concentrations in the hippocampus and cortex. Since exposure to the FST can evoke various neurochemical alterations, two additional groups were employed in this experiment, i.e., control nonkindled mice that were exposed to the FST and naïve mice. No marked differences in both glutamate and GABA concentrations in the hippocampus were observed (Figure 5A). […] We found a significant increase in glutamate concentration in the cortex of mice subjected to the FST (p < 0.05 vs naive mice). […] Given that seizures are typically accompanied by elevated extracellular glutamate levels (an excitatory neurotransmitter), a decreased glutamate concentration in the cortex of kindled animals may appear to be an unexpected outcome. It should be highlighted, however, that the concentrations of glutamate and GABA in tissue homogenates rather than dialysate were measured in brain samples acquired 24 h following the previous PTZ dose, which may have an impact on the outcomes. On the other hand, decreased glutamate levels could be caused by the up-regulation of glutamate transporters, as the expression of glutamate transporters can increase following seizures.[48] For example, an increased expression of hippocampal GLT-1 was observed 24 h after kainic acid-induced status epilepticus in mice and PTZ-induced kindling in rats.[49] Moreover, similar to our findings, Szyndler et al.([50]) found decreased glutamate concentrations, with no changes in GABA concentrations, in homogenates of the hippocampus, striatum, and prefrontal cortex of PTZ-kindled rats.
Figure 5 Changes in glutamate and GABA concentrations in the hippocampus (A) and cortex (B). Data are shown as means + SD (n = 9–14 animals). Statistical significance was evaluated by one-way ANOVA followed by Tukey’s post hoc test: *p < 0.05, **p < 0.01, ***p < 0.001 (GraphPad Prism 8.4.3).
GABA and glutamate concentrations were determined using liquid chromatography tandem mass spectrometry (LC-MS/MS) in the mouse prefrontal cortex and hippocampus. Toronto Research Chemicals Inc. was the source of the standards for both analytes (Toronto, ON, Canada). GABA and glutamate stock standard solutions were made in methanol and deionized water, respectively, and kept cold at 4 °C. The stock solutions were suitably diluted to create a range of solution combinations with the appropriate concentrations. Prior to analysis, a hand-held pestle and glass tube homogenizer (Potter–Elvehjem PTFE pestle and glass tube, Sigma-Aldrich, St. Louis, MO, USA) were used to homogenize mouse brains in distilled water at a ratio of 50 μL/mg. Following a 10 min centrifugation at 8000g for 10 min at 4 °C, homogenates were diluted 10 times with 0.1% formic acid in MeCN from the supernatant. Samples (10 μL) were deproteinized with 80 μL of 0.1% formic acid in MeCN by shaking for 10 min (IKA Vibrax VXR, IKA Werke GmbH & Co. KG, Staufen im Breisgau, Germany) and centrifuged for 5 min at the speed of 8000g (Eppendorf miniSpin centrifuge) after isotope-labeled GABA-d6 and glutamate-d5 (Toronto Research Chemicals Inc., Toronto, ON, Canada) were added as internal standards (10 μL at the concentration of 500 ng/mL). The autosampler vials were filled with the acquired supernatants. […]

[11] = test system: formalin-induced pain, mice; parameters: method as in PMID 28934547; settings: previously tested in the authors' laboratory; cited from earlier work
[12] = reference ASMs, pretreatment time 0.5 h (LCS, VPA) or 1.0 h (LEV, CBD)
[13] = racemates, pretreatment time 0.5 h

CC[C@@H](C(N)=O)N1CCCC1=O [LEV, levetiracetam]
ED50 MES ([1]; reference ASMs, pretreatment time 0.5 h (LCS, VPA) or 1.0 h (LEV, CBD), literature or own experiments): >500 mg/kg | ED50 6 Hz (44 mA) [2, 12]: 204.0 mg/kg | TD50 [3]: >500 ^c mg/kg

COc1cccc2c1C(=O)c1c(O)c3c(c(O)c1C2=O)C[C@@](O)(C(=O)CO)C[C@@H]3O[C@H]1C[C@H](N)[C@H](O)[C@H](C)O1 [doxorubicin, reference compound]
viability at 72 h, 1 µM [4]: ~20%

CC(=O)NC(C(=O)N1CCN(c2cccc(C(F)(F)F)c2)CC1)c1ccccc1 (stereo not drawn) [KJ-5]
ED50 6 Hz (32 mA) [5, 13]: 29.9 mg/kg | ED50 MES [1, 13]: 89.7 mg/kg | ED50 6 Hz (44 mA) [2, 13]: 68.0 mg/kg | TD50 [6]: 179.7 ^b mg/kg

CCCC(CCC)C(=O)O [VPA, valproic acid, reference compound]
ED50 6 Hz (32 mA) [5, 12]: 130.6 mg/kg | activity in capsaicin-induced pain [7]: active only at the highest administered dose | mBDNF protein expression in the hippocampus (PTZ kindling-induced overexpression) [8]: reversed the overexpression | effect on kindling progression [9]: suppressed kindling progression | GABA concentration in the cortex ([10]; 150 mg/kg, p < 0.05 vs PTZ-kindled control group): significantly decreased | glutamate concentration in the hippocampus ([10]; vs nonkindled FST control group): slight decrease | ED50 in the late phase of the formalin test [11]: 132.9 mg/kg
